Measured values reported in patent publication US8470849B2, “7-azaindole derivatives as selective 11-β-hydroxysteroid dehydrogenase type 1 inhibitors” (Merck Patent GmbH, priority 2007, dated 2013).

What was measured:
Assay type in all cases: biochemical
human 11-beta HSD-1 = biological target: T1, human 11-beta HSD-1 (Homo sapiens, UniProt P28845); test: 11beta-HSD1 enzyme assay, human recombinant enzyme (HTRF cortisol); conditions: for IC50: human recombinant enzyme from E. Coli, cortisone/NADPH, 150 minutes at 37° C., read-out: Inhibition of human 11-beta HSD-1 IC50; for Selectivity Ratio human HSD2/HSD1: ratio of IC50 human HSD2 to human HSD1
T1 construct: made in house; host or cells: E. coli
T1 sequence (P28845 whole entry): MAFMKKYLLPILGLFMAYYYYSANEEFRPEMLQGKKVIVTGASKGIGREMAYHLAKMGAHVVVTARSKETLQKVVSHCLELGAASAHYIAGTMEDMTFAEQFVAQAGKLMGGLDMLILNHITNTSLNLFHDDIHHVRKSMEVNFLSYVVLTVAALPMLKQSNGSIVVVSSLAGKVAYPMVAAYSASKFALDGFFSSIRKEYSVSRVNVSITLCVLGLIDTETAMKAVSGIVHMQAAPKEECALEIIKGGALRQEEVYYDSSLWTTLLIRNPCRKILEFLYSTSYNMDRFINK
Procedure: (§1) Human recombinant 11 beta-hydroxysteroid dehydrogenase type 1 (11 beta-HSD1) and type 2 (11beta-HSD2) enzymes were expressed in E. Coli. Mice and Rat liver microsome fractions were purchased from TEBU.
(§2) Reactions were initiated by addition of 10 μl 11beta-HSD1 (3 μg) from E. Coli, either as microsome fractions from rat and mice liver (2,5 μg). Following mixing, the plates were shaken for 150 minutes at 37° C. The reactions were terminated with 10 μl Acid-18beta glycyrrhetinic stop solution. Determinations of cortisol levels in 11 beta-HSD1 preparations were monitored by HTRF (HTRF cortisol assay from C is bio international).

mouse 11-beta HSD-1 = biological target: T2, mouse 11-beta HSD-1 (Mus musculus, UniProt P50172); test: 11beta-HSD1 enzyme assay, mice liver microsome fractions (HTRF cortisol); conditions: for IC50: read-out: Inhibition of mouse 11-beta HSD-1 IC50
T2 construct: Mice and Rat liver microsome fractions were purchased from TEBU; tissue TEBU; host or cells: mouse liver microsome fractions
T2 sequence (P50172 whole entry): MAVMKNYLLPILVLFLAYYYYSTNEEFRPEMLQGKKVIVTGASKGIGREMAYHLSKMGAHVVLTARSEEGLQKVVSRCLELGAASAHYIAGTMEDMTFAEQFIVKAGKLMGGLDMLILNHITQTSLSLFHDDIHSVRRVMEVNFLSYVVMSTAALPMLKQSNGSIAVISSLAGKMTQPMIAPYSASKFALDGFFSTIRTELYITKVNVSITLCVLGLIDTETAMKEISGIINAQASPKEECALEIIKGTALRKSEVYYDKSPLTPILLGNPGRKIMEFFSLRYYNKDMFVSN
Procedure: as §1, §2

rat 11-beta HSD-1 = biological target: T3, rat 11-beta HSD-1 (Rattus norvegicus, UniProt P16232); test: 11beta-HSD1 enzyme assay, rat liver microsome fractions (HTRF cortisol); conditions: for IC50: read-out: Inhibition of rat 11-beta HSD-1 IC50
T3 construct: Mice and Rat liver microsome fractions were purchased from TEBU; tissue TEBU; host or cells: rat liver microsome fractions
T3 sequence (P16232 whole entry): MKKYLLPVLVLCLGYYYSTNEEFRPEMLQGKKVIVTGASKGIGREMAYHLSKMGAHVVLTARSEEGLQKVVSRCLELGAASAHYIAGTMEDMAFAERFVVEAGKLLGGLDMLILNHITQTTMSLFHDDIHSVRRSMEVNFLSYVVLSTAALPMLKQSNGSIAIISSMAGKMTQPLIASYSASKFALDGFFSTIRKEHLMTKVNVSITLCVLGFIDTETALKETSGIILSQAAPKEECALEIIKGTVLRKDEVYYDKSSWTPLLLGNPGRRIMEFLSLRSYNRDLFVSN
Procedure: as §1, §2

human 11-beta HSD-2 = biological target: T4, human 11-beta HSD-2 (Homo sapiens, UniProt P80365); test: 11beta-HSD2 enzyme assay, human recombinant enzyme; conditions: cortisol/NAD, read-out: Inhibition of human 11-beta HSD-2 IC50
T4 construct: made in house; host or cells: E. coli
T4 sequence (P80365 1-405): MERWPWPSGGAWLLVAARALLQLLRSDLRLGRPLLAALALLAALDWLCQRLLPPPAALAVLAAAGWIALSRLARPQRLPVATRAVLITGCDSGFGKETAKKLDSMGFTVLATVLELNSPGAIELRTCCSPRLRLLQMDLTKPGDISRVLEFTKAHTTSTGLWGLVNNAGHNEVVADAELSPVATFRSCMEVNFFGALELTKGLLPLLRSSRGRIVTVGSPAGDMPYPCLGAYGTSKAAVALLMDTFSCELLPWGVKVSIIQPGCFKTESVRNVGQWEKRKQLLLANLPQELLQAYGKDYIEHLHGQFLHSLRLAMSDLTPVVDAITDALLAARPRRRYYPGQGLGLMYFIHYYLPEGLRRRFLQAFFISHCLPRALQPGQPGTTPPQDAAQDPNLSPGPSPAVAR
Excerpt: as §1

Structure (SMILES)	IC50 (human 11-beta HSD-1)	IC50 (rat 11-beta HSD-1)	IC50 (mouse 11-beta HSD-1)	other results
CC(C)(COc1ccc(F)cc1)CC(=O)N1CCC(c2c[nH]c3ncccc23)CC1 [Ex. 14, 4-(4-Fluoro-phenoxy)-3,3-dimethyl-1-[4-(1H-pyrrolo[2,3-b]pyridine-3-yl)-piperidine-1-yl]-butan-1-one]	110 nM			Inhibition of mouse 11-beta HSD-1, activity in % of Ctrl (mouse 11-beta HSD-1; at 1 μM): 86% of Ctrl; Inhibition of rat 11-beta HSD-1, activity in % of Ctrl (rat 11-beta HSD-1; at 1 μM): 85% of Ctrl
O=C(C1CCCCC1)N1CCC(c2c[nH]c3ncccc23)C1 (stereo not shown) [Ex. 3, (Cycloxexyl)-[3-(1H-pyrrolo[2,3-b]pyridine-3-yl)-pyrrolidine-1-yl]-methanone]	540 nM	510 nM	950 nM	
O=C(CS(=O)(=O)c1ccc(Cl)cc1)N1CCC(c2c[nH]c3ncccc23)C1 (stereo not shown) [Ex. 20, 2-(4-Chloro-benzenesulfonyl)-1-[3-(1H-pyrrolo[2,3-b]pyridine-3-yl)-pyrrolidine-1-yl]-ethanone]	29 nM			
CN(C)c1ccc(C(=O)N2CCC(c3c[nH]c4ncccc34)C2)cc1 (stereo not shown) [Ex. 7, (4-Dimethylaminophenyl)-[3-(1H-pyrrolo[2,3-b]pyridine-3-yl)-pyrrolidine-1-yl]-methanone]		43 nM	170 nM	IC50 (human 11-beta HSD-2): > 10000 nM
CC(C)(COc1ccc(F)cc1)CC(=O)N1CCC(c2c[nH]c3ncccc23)C1 (stereo not shown) [Ex. 17, 4-(4-Fluoro-phenoxy)-3,3-dimethyl-1-[3-(1H-pyrrolo[2,3-b]pyridine-3-yl)-pyrrolidine-1-yl]-butan-1-one]	16 nM		2100 nM	
CC(C)(C(=O)N1CCC(c2c[nH]c3ncccc23)CC1)N1CCN(c2ccc(C(F)(F)F)cn2)CC1 [Ex. 13, 2-Methyl-1-[4-(1H-pyrrolo[2,3-b]pyridin-3-yl)-piperidine-1-yl]-2-[4-(5-trifluoromethyl-pyridine-2-yl)-piperazine-1-yl]-propan-1-one]	1140 nM			

Now from value to compound, other results behind:

IC50 (human 11-beta HSD-1)	IC50 (rat 11-beta HSD-1)	IC50 (mouse 11-beta HSD-1)	Structure (SMILES)	other results
9.8 nM	920 nM		CC(C)(C(=O)N1CCC(c2c[nH]c3ncccc23)C1)c1ccc(Cl)cc1 (stereo not shown) [Ex. 9, 2-(4-Chlorophenyl)-2-methyl-1-[3-(1H-pyrrolo[2,3-b]pyridine-3-yl)-pyrrolidine-1-yl]-propan-1-one]	Selectivity Ratio human HSD2/HSD1 (human 11-beta HSD-1): > 1000
50 nM	48 nM		O=C(N1CCC(c2c[nH]c3ncccc23)C1)C1(c2ccccc2)CC1 (stereo not shown) [Ex. 8, (1-Phenyl-cyclopropyl)-[3-(1H-pyrrolo[2,3-b]pyridine-3-yl)-pyrrolidine-1-yl]-methanone]	Selectivity Ratio human HSD2/HSD1 (human 11-beta HSD-1): >200
